Several values for one entry are separate records, joined by “and”; a condition that tells them apart may be missing. Equal entries are not always repeated.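 Compound exposure: 48 hours, 5 concentrations, 96-well plates. GI50 = concentration required for 50% inhibition of growth. At the TGI there is no net growth.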
Legend:
Test in all cases: growth of human tumour cells (NCI), 48 h
HL-60(TB) leukemia = system: HL-60(TB) leukemia
MDA-MB-435 = system: MDA-MB-435
NCI/ADR-RES ovarian = system: NCI/ADR-RES ovarian
SF-539 CNS = system: SF-539 CNS
SK-MEL-28 melanoma = system: SK-MEL-28 melanoma
IGROV1 ovarian = system: IGROV1 ovarian
SF-268 CNS = system: SF-268 CNS
BT-549 breast = system: BT-549 breast
RPMI-8226 leukemia = system: RPMI-8226 leukemia
EKVX NSCLC = system: EKVX NSCLC
HOP-92 NSCLC = system: HOP-92 NSCLC

Structure (SMILES) | TGI (HL-60(TB) leukemia) | TGI (MDA-MB-435) | TGI (NCI/ADR-RES ovarian) | TGI (SF-539 CNS) | TGI (SK-MEL-28 melanoma) | TGI (IGROV1 ovarian) | TGI (SF-268 CNS) | TGI (BT-549 breast) | TGI (RPMI-8226 leukemia) | TGI (EKVX NSCLC) | TGI (HOP-92 NSCLC) | GI50 (HL-60(TB) leukemia) | GI50 (NCI/ADR-RES ovarian) | GI50 (SF-539 CNS) | GI50 (SF-268 CNS) | GI50 (HOP-92 NSCLC)
N#Cc1c(O)c(/C=N/c2ncccn2)c(=O)n2c1[nH]c1ccccc12 | > 100 µM | > 100 µM | > 100 µM | > 100 µM | > 100 µM | > 100 µM | > 100 µM | > 100 µM | > 100 µM | > 100 µM | > 100 µM |  |  |  |  | 
CCOC(=O)c1c(NC(=S)Nc2ccccc2)sc2c1CCOC2 | > 100 µM | > 100 µM | > 100 µM | > 100 µM | > 100 µM | > 100 µM | > 100 µM | 58 µM | > 100 µM | > 100 µM | 89.4 µM |  |  |  |  | 
O=C(CC(Cl)=C(Cl)Cl)c1ccccc1 | > 100 µM | > 100 µM | > 100 µM | > 100 µM | > 100 µM | > 100 µM | > 100 µM | > 100 µM | 41.9 µM |  | > 100 µM |  |  |  |  | 
c1ccc([I+]c2ccccc2)cc1 | > 100 µM | > 100 µM | > 100 µM | > 100 µM | > 100 µM | > 100 µM | > 100 µM | > 100 µM | > 100 µM | > 100 µM | > 100 µM |  |  |  |  | 
CC(C)Oc1c(-c2ccc(F)cc2)c(O)c2c3c1oc(=O)n3C=CC2C (centres undefined) | 31 µM | 52.9 µM | 29.3 µM | 26.4 µM | 30.9 µM | 29.2 µM | 35.2 µM | 28 µM | 34.7 µM | 30.6 µM | 28 µM |  |  |  |  | 
CC(C)N(C(C)C)S(=O)(=O)C[C@]12CC[C@H](CC13OCC(CS(=O)(=O)c1ccccc1)O3)C2(C)C (some centres undefined) | 61.2 µM | > 100 µM | > 100 µM | > 100 µM | > 100 µM | > 59.5 µM | > 100 µM | > 100 µM | > 100 µM | > 100 µM | > 75.3 µM |  |  |  |  | 
Cc1cnc2sn(-c3ccc(Br)cc3)c(=O)c2c1 | 49.7 µM | > 100 µM | > 100 µM | > 100 µM | > 100 µM | > 100 µM | > 100 µM | > 100 µM | > 100 µM | > 100 µM | 68.8 µM |  |  |  |  | 
CC1C(C#N)(C#N)C(C#N)=C(N)C1(Cl)[N+](=O)[O-] (centres undefined) | 5.16 µM | 31.6 µM | 34.2 µM | 25.2 µM |  | 22.5 µM | 28.7 µM | 26.3 µM | 39.8 µM | 41.4 µM | 5.91 µM |  |  |  |  | 
CCOC1CC(C)N(C(=O)c2ccccc2)O1 (centres undefined) | > 100 µM | > 100 µM | > 100 µM | > 100 µM | > 100 µM | > 100 µM | > 100 µM | > 100 µM |  | > 100 µM | > 100 µM |  |  |  |  | 
CC(Cl)CC(=O)OCC1CCCN2CCCCC12 (centres undefined) | > 100 µM | > 100 µM | > 100 µM | > 100 µM | > 100 µM |  | > 100 µM | > 100 µM | > 100 µM | > 100 µM | > 100 µM |  |  |  |  | 
O=C(N/N=C(/COc1ccccc1)N=Cc1cccnc1)c1ccncc1 | > 100 µM | > 100 µM | > 100 µM | > 100 µM | > 100 µM | > 100 µM | > 100 µM | > 100 µM | > 100 µM | > 100 µM |  |  |  |  |  | 
Cn1cc(-c2csc(-c3cn(C)c4ccccc34)n2)c2ccccc21 | > 100 µM | > 100 µM | > 100 µM |  | > 100 µM | > 100 µM | > 100 µM | > 100 µM | 85 µM |  | 94.5 µM |  |  |  |  | 
CC1(C)[C@@H]2C[C@H]1c1cnc(-c3ccccn3)cc1C2CCCCC[C@@H]1c2cc(-c3ccccn3)ncc2[C@@H]2C[C@H]1C2(C)C (some centres undefined) | 5.76 µM | > 100 µM | > 100 µM | 0.456 µM | > 100 µM | 46.1 µM | > 100 µM | > 100 µM | 19.6 µM | > 100 µM |  |  |  |  |  | 
CN(C)c1ccc(C=C2C(=O)NC(=S)NC2=O)c2ccccc12 | > 100 µM | > 100 µM | > 100 µM | > 100 µM | > 100 µM | > 100 µM | 76.9 µM | > 100 µM | > 100 µM | > 100 µM | 91.4 µM |  |  |  |  | 
Cc1ccc(C(=O)N/N=C(\N=Nc2ccc(C(=O)O)cc2)c2ccc(N(CCC#N)CCC#N)cc2C)cc1 | > 100 µM | > 100 µM | > 100 µM | > 100 µM | > 100 µM |  |  | > 100 µM | > 100 µM | > 100 µM | > 100 µM |  |  |  |  | 
Cc1[nH]c(=O)nc(NNCc2ccc(Cl)cc2)c1C(=O)Nc1ccc(Cl)cc1 | > 100 µM | > 100 µM | > 100 µM | > 100 µM | > 100 µM | > 100 µM |  | > 100 µM | > 100 µM |  | > 100 µM |  |  |  |  | 
CN1CC2CN(Cc3ccccc3)CCN2c2cccnc21 (centres undefined) | > 100 µM | > 100 µM | > 100 µM | > 100 µM |  | > 100 µM | > 100 µM | > 100 µM | > 100 µM | > 100 µM | > 100 µM |  |  |  |  | 
CC(=O)N(C(C)=O)c1cc2c3c(c1)CCCN3CCC2 | > 10 µM | > 10 µM | > 10 µM | > 10 µM | > 10 µM | > 10 µM | > 10 µM | > 10 µM | > 10 µM | > 10 µM | > 10 µM |  |  |  |  | 
COc1ccc2nc3cccc([N+](=O)[O-])c3c(NCCCO)c2c1 |  | 0.0017 µM and 0.0128 µM | 0.0276 µM and 0.248 µM | 0.00518 µM and 0.0418 µM |  | 0.0313 µM and 0.29 µM |  | 0.0146 µM and 0.0929 µM | 0.219 µM |  | 0.0565 µM | 2.33 nM | 6.16 nM and 22.9 nM | 1.41 nM and 13.2 nM | 1.01 nM | 15.4 nM
O=C(c1ccc(Cl)cc1)N(C(=S)OCCOc1ccccc1)c1ccccc1 | 38.6 µM | 30.7 µM | 76.3 µM | 34 µM | 34.9 µM | 38.1 µM | 60.4 µM | 52.3 µM | 44.1 µM | 48.6 µM | 30.7 µM |  |  |  |  | 
ClCCCCCc1c2nc(c(CCCCCCl)c3ccc([nH]3)c(CCCCCCl)c3ccc([nH]3)c(CCCCCCl)c3nc1C=C3)C=C2 | > 100 µM | > 100 µM | > 100 µM | > 100 µM | > 100 µM | > 100 µM | > 100 µM | > 100 µM | > 100 µM | > 100 µM | > 100 µM |  |  |  |  | 
